Data from PMC8311653, “Design, Synthesis, In Vitro and In Vivo Characterization of Selective NKCC1 Inhibitors for the Treatment of Core Symptoms in Down Syndrome” (Journal of Medicinal Chemistry, 2021).
Where two headings read alike, the source gives them in different places.

Tests used:
NKCC2 [1] = biological target: T1, NKCC2 (Homo sapiens, UniProt Q13621); set-up: method as in PMID 32818158; conditions: 10 μM; cited from earlier work
T1 construct: host or cells: HEK293
T1 sequence (Q13621 1-1099): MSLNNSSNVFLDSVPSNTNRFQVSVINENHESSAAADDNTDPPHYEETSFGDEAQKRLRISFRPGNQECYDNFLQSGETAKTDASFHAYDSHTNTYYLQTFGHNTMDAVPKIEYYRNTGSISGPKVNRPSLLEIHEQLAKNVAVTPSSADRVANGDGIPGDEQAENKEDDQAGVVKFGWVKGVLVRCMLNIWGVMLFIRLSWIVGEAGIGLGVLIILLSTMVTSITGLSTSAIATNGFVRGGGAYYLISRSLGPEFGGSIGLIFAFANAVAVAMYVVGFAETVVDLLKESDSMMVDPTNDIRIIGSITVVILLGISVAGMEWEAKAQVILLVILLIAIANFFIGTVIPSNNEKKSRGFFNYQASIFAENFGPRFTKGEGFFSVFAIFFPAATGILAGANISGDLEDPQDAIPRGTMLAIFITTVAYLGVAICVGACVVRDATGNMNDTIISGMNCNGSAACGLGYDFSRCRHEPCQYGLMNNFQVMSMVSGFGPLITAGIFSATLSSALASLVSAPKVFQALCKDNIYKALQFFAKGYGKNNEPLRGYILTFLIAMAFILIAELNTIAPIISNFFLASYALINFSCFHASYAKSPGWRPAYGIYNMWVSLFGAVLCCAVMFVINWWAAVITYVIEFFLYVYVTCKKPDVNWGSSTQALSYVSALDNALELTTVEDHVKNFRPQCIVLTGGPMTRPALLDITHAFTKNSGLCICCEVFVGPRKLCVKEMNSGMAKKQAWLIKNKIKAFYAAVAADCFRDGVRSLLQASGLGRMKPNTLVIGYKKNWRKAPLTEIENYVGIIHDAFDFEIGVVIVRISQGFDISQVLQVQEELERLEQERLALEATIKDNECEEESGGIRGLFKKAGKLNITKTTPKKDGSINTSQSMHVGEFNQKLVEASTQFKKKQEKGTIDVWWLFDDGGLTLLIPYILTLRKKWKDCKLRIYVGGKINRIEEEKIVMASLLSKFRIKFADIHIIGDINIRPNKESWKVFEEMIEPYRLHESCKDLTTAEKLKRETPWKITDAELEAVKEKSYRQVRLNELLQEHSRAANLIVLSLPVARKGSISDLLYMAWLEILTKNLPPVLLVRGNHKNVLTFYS

NKCC2 [2] = biological target: T1, NKCC2; assay: Cl- influx assay in NKCC2-transfected HEK293 cells; format: cell-based; conditions: 10 μM
Procedure: HEK293 cells were cultured in Dulbecco’s modified Eagle’s medium (DMEM) supplemented with 10% fetal bovine serum, 1% L-glutamine, 100 U/mL penicillin, and 100 μg/mL streptomycin and maintained at 37 °C in a 5% CO2 humidified atmosphere. […] To assess KCC2 activity (Tl influx assay), cells were transfected with 8 μg of KCC2[54] subcloned in the PRK5 plasmid or mock control (empty vector) and 16 μL of Lipofectamin 2000. After 4 h, the cells were collected and plated in 96-well black-walled, clear-bottomed plates at a density of 2.5 × 10^4. After 48 h, cells were used for the Cl^– or Tl influx assays. All reagents were purchased from Life Technologies, unless otherwise specified.
After 30 min of incubation, plates were loaded into a Victor 3V (PerkinElmer) multiplate reader equipped with an automatic liquid injector system, and fluorescence of Cl^–-sensitive mbYFPQS was recorded with excitation at 485 nm and emission at 535 nm. For each well, fluorescence was first recorded for 20 s of the baseline and for 60 s after delivery of a NaCl concentrated solution (74 mM final concentration in the assay well). Fluorescence of Cl^–-sensitive mbYFPQS is inversely correlated to the intracellular Cl^– concentration;[53] therefore, chloride influx into the cells determined a decrease in mbYFPQS fluorescence. […]

Ts65Dn mice [3] = assay: T-maze test (short-term working memory); format: in vivo, mouse; conditions: ip 0.6 mg kg-1 daily, chronic (7-21 days)
Procedure: (§1) A veterinarian was employed to maintain the health and comfort of the animals. Mice were housed in filtered cages in a temperature-controlled room with a 12:12 h dark/light cycle and with ad libitum access to water and food. All efforts were made to minimize animal suffering and use the lowest possible number of animals required to produce statistical relevant results, according to the “3Rs concept”. In this study, we used Ts65Dn mice maintained in their original genetic background[57] by crossing (more than 40 times) Ts65Dn female to C57BL/6JEi × C3SnHeSnJ (B6EiC3) F1 males (Jackson Laboratories). Ts65Dn mice were genotyped by PCR as previously described.[58] Only males were used for behavioral experiments. Ts65Dn and controls were randomly assigned to vehicle groups (2% DMSO in saline), bumetanide (Sigma, 0.6 mg kg^–1 body weight), or 40 (0.6 mg kg^–1 body weight) and treated daily for ∼21 days by intraperitoneal injection (i.p.). On the day of behavioral testing, injection was performed 1 h before the task began.
(§2) Ts65Dn male mice (8–16 weeks old) were tested after 1 week of treatment with vehicle or 40 (0.6 mg kg^–1 i.p.). The battery of tests was run over a total period of ∼14 days (four behavioral tests with the following order Open Field, NOR, T-maze, and CFC). […] The tasks were video-recorded and then analyzed manually by a blind operator.

Ts65Dn mice [4] = assay: Contextual fear-conditioning (CFC) test; format: in vivo, mouse; conditions: ip 0.6 mg kg-1 daily, chronic, re-exposure 24 h after conditioning
Procedure: as §1, §2

Ts65Dn mice [5] = assay: Novel object recognition (NOR) test; format: in vivo, mouse; conditions: ip 0.6 mg kg-1 daily, chronic (7-21 days)
Procedure: as §1, §2

Compound	inhibition of NKCC2 in the Cl- influx assay (NKCC2 [1])	inhibition of NKCC2 in the Cl- influx assay (NKCC2 [2])	short-term working memory in the T-maze test (number of correct choices) (Ts65Dn mice [3])	associative memory in the CFC test (freezing response) (Ts65Dn mice [4])	novel-discrimination ability in the NOR task (discrimination index) (Ts65Dn mice [5])
CN(C)S(=O)(=O)c1cc(C(=O)O)ccc1NCCCCCCCC(F)(F)F [Compound 1, 3-(-N,N-Dimethylsulfamoyl)-4-(8,8,8-trifluorooctylamino)benzoic Acid]	did not show any significant inhibition	–	–	–	–
CN(C)S(=O)(=O)c1cc(C(=O)O)c(O)cc1NCCCCCCCC(F)(F)F [Compound 40, 5-(N,N-Dimethylsulfamoyl)-2-hydroxy-4-((8,8,8-trifluorooctyl)amino)benzoic Acid]	–	did not show any significant inhibition	fully restored	completely restored	completely rescued
